Tests used:
MAb 4082-25-4 [1] = experiment: Indirect competitive ELISA (assay A), inhibition of MAb 4082-25-4 binding / cross-reactivity; parameters: species or system BALB/c mouse; settings: for I50 (inhibitor concentration for 50% inhibition in the competitive ELISA): MAb 4082-25-4; for Cross-reactivity (metolachlor concentration for 50% inhibition / concentration of metolachlor analogue for 50% inhibition × 100): MAb 4082-25-4, relative to metolachlor
Excerpt: The percentage cross-reactivity is to be defined within the scope of this invention by the following relation:
(Metolachlor concentration for 50% inhibition/concentration of the metolachlor analogues for 50% inhibition)×100.
A 50% inhibition can be determined, for example, with the aid of a competitive ELISA assay (compare Example 8). This then corresponds, for example, to that antigen concentration which leads to 50% inhibition of antibody binding to the carrier-bound antigen.
8.1: Indirect ELISA (assay A)
Metolachlor is detected by means of a two-stage competitive ELISA test using an enzyme-labelled second antibody.
BSA-conjugated hapten in a 50 mM sodium carbonate buffer (pH 9.6) (200 ng of BSA-conjugated hapten/100 μl of sodium carbonate buffer) is initially adsorbed onto microtitre plates (for example Dynatech, type M 129A) and incubated at a temperature of 4° C. overnight. It has emerged that the sensitivity of the assay can be increased almost 5-fold by reducing the conjugate[BSA/hapten] concentration from 200 ng/100 μl of sodium carbonate buffer to 50 ng/100 μl of sodium carbonate buffer because the coating is improved.
The plates are then washed 5× with PBS buffer which is supplemented with 0.1% (v/v) polysorbate 20 (Tween 20) (PBS-Tween).
The remaining free binding sites on the solid support material are then blocked by adding BSA in the form of a 1% solution. After incubation at 22° C. for two hours the plates are again washed with PBS-Tween (0.1%).
50 μl of the previously purified monoclonal antibodies (0.2 μg/ml) or else of the supernatant of the cell clones (in a dilution of 1:15) are incubated a) with 950 μl of a standard solution which contains an increasing content of metolachlor or metolachlor analogue, b) with metolachlor-containing water samples or c) metolachlor-containing soil extracts. (PBS-Tween is used for all dilutions).
After an incubation time of 1 hour at room temperature (22° C.), 200 μl of the antigen/antibody mixture are added to each well of the microtitre plate, and the entire mixture is incubated for a further hour. The wells are then washed 5× with PBS-Tween (0.1%) and charged with 100 μl/well of goat anti-mouse IgG antibody which is conjugated to alkaline phosphatase (dilution 1:1500) and incubated for a period of 1.5 hours.
After renewed washing, 150 μl/well of the substrate p-nitrophenyl phosphate which is dissolved in 1 mg/ml diethanolamine buffer (1 mM, pH 9.8, supplemented with 0.5 mM MgCl2 ×6H2 O) are added to the wells.
After an incubation time of 2 hours at a temperature of 22° C. it is possible to observe a colour change which is proportional to the amount of antibody which has reacted with the antigen bound to the solid phase. The intensity of the colour reaction which has occurred is determined at a wavelength of 405 nm. The dilutions of the individual samples are chosen so that absorptions in a range between 0.3 and 0.5 are obtained without addition of an inhibitor (Bo). Values of R≤0.005 are found for the controls (without antibody and with undetectable amounts of antigen). All the samples are determined in triplicate.
(§1) For the determination of the amount of metolachlor contained in a sample, initially a calibration plot is constructed (FIG. 1), where B/Bo×100is plotted against the concentration of inhibitor. (Bo represents the absorbance measured without addition of a metolachlor inhibitor to the antibody, and B means the absorbance measured with various concentrations of metolachlor inhibitor). […] The I50 value is calculated using an ENZFITTER (Leatherbarrow, Elsevier-Biosoft) plot calculation program specifically adapted to the present circumstances and based on a logistic plot embracing 4 parameters (Raab GM, 1983). The quantitative determination of metolachlor in samples of soil or water within the scope of the ELISA is also carried out using the ENZFITTER program, with the fitting of the plot being based on standards included on each microtitre plate. […]

MAb 4082-25-4 [2] = experiment: Direct competitive ELISA (assay B); type: binding, BALB/c mouse
Description: 8.2: Direct ELISA (assay B)
Microtitre plates [Dynatech M 129A] are coated with monoclonal antibodies [for example MAb 4082-25-4; 75 ng/100 μl of 50 mM sodium carbonate buffer, pH 9.6] and incubated at a temperature of 4° C. overnight. The plates are then washed 5 times with 0.1% (v/v) PBS-Tween and subsequently incubated with PBS supplemented with 1% (w/v) BSA for 2 hours in order to block the binding sites which are still free. After renewed washing, 150 μl of a standard solution are added to each of the wells of the microtitre plates which contain increasing amounts of metolachlor in 0.1% (v/v) PBS-Tween. This is followed by incubation at a temperature of 22° C. for 1 hour. […] After incubation at 22° C. in the dark for 2 hours, the absorption of 405 nm is determined.
as §1, with “1983).” for “1983). The quantitative determination of metolachlor in samples of soil or water within the scope of the ELISA is also carried out using the ENZFITTER program, with the fitting of the plot being based on standards included on each microtitre plate.”

Compound | I50 (inhibitor concentration for 50% inhibition in the competitive ELISA) (MAb 4082-25-4 [1]) [ng/mL] | Cross-reactivity (metolachlor concentration for 50% inhibition / concentration of metolachlor analogue for 50% inhibition × 100) (MAb 4082-25-4 [1]) [%] | I50 (MAb 4082-25-4 [2]) [ng/mL]
COC(=O)C(C)Nc1c(C)cccc1C (stereo not drawn) [Compound I] | > 1000 | < 0.1 | 
COCC(=O)Nc1c(C)cccc1C [J] | > 1000 | < 0.1 | 
COC(=O)C(C)N(C(=O)c1ccco1)c1c(C)cccc1C (stereo not drawn) [N] | > 1000 |  | 
CCc1cccc(C)c1NC(=O)CCl [C] | > 1000 | < 0.1 | 
CCc1cccc(C)c1NC(=O)CO [D] | > 1000 | < 0.1 | 
COCC(=O)N(c1c(C)cccc1C)C(C)C(=O)OC (stereo not drawn) [matalaxyl] |  | < 0.1 | 
CCc1cccc(C)c1N(C(=O)CO)C(C)CO (stereo not drawn) [F] | > 1000 | < 0.1 | 
COCC(=O)N(c1c(C)cccc1CO)C(C)C(=O)OC (stereo not drawn) [M] | > 1000 | < 0.1 | 
CCc1cccc(C)c1N(C(=O)CCl)C(C)COC (stereo not drawn) [Metolachlor, 2-chloro-6'-ethyl-N-(2-methoxy-1-methyl-ethyl)acet-O-toluidide] | 0.6 | 100 | 1.0
CCc1cccc(C)c1NC(C)COC (stereo not drawn) [B] | > 1000 | < 0.1 | 
COCC(=O)N(c1c(C)cccc1C)C(C)C(=O)O (stereo not drawn) [G] | > 1000 | < 0.1 | 
Cc1cccc(C)c1NC(C)C(=O)O (stereo not drawn) [K] | > 1000 | < 0.1 | 
Cc1cccc(C)c1N(C(=O)CO)C(C)C(=O)O (stereo not drawn) [H] | > 1000 | < 0.1 | 
CCc1cccc(CC)c1N(COC)C(=O)CCl [Alachlor] | > 1000 | < 0.1 | 
CCc1cccc(C)c1N(C(=O)CO)C(C)COC (stereo not drawn) [A] | 43 | 1.4 | 
COCC(=O)N(c1c(C)cccc1C)C(C)C(=O)OC (stereo not drawn) [L] | > 1000 |  | 
CCc1cccc(C)c1NC(C)CO (stereo not drawn) [E] | > 1000 | < 0.1 | 
COC(=O)C(C)N(C(=O)c1ccco1)c1c(C)cccc1C (stereo not drawn) [furalaxyl] |  | < 0.1 | 

Source: patent publication US5576188A, “Immunological detection of metolachlor” (Ciba-Geigy Corporation, priority 1990, dated 1996)
